From PubChem BioAssay AID463229 (Broad Institute, 2010)

test system: INS-1E rat beta cells, no cytokines, CellTiter-Glo ATP, 48 h; assay: ATP level change in INS-1E without cytokines, dose response, counter-screen for beta-cell apoptosis protection project, INS-1E rat cells, ATP luminescence, cherry pick (AID 463229)

Row | Structure (SMILES) | AC50
1 | Cc1ccc2nc(/C(C#N)=C\c3ccc([N+](=O)[O-])o3)[nH]c2c1 | 2.96 µM
2 | COCCC1CCCCN1C(=O)c1cc(COc2ccc(-n3cncn3)cc2)on1 (configuration not stated) | 6.35 µM
3 | Cc1ccc(NC(=O)CCC(=O)N/N=C/c2ccc([N+](=O)[O-])o2)cc1C | 19.8 µM
4 | CCc1ccc2c(c1)C1(C(=O)N2)N2CCCC2C(C(=O)c2ccc3ccccc3c2)C12C(=O)Nc1ccccc12 (configuration not stated) | 7.76 µM
5 | COC(=O)c1sc(-c2ccc(C(C)(C)C)cc2)cc1NC(=O)/C=C/C(=O)O | 13.8 µM
6 | CC(=O)Nc1ccc(NC(=O)CN(c2cccc([N+](=O)[O-])c2)S(C)(=O)=O)cc1 | 6.49 µM
7 | CN1/C(=C\C=N\NC(=O)c2ccc(O)cc2)C(C)(C)c2ccccc21 | 7.5 µM
8 | C/C(=N/Nc1nc(-c2ccccc2)cc(-c2ccc(F)cc2)n1)c1cccc(N)c1 | 15.1 µM
9 | CC(=O)Nc1ccccc1OCC(=O)c1cc(C)n(Cc2cccs2)c1C | 1.01 µM
10 | O=C1C(Cl)=C(Nc2ccc3cn[nH]c3c2)C(=O)c2ccccc21 | 4.47 µM
11 | C/C(=N\NC(=O)c1ccc(Cl)cc1)c1ccccn1 | 1.62 µM
12 | CN(C1=C(NC(=O)c2ccc(Cl)cc2)C(=O)c2ccccc2C1=O)c1ccccc1 | 13 µM
13 | Cc1c2ccncc2c(C)c2c1[nH]c1ccccc12 | 5.21 µM
14 | COc1cccc(/C=N/Nc2ncc(C(F)(F)F)cc2Cl)c1O | 4.26 µM
15 | Oc1c(CN2CCN(c3ccc(F)cc3)CC2)cc(Cl)c2cccnc12 | 4.27 µM
16 | C/C(=N\NC(=O)c1nnn(-c2nonc2N)c1CN(C)c1ccccc1)c1ccccc1O | 9.18 µM
17 | Cc1sc2ncnc(NCC(O)c3ccccc3)c2c1C (configuration not stated) | 10.5 µM
18 | CN1C2CCC1/C(=C/c1ccccn1)C(=O)/C2=C\c1ccccn1 | 2.11 µM
19 | COCCn1c(SCC(=O)/C=C2\N(C)c3ccccc3C2(C)C)nnc1-c1ccncc1 | 13.1 µM
20 | C(=N\Nc1nncc2ccccc12)/c1ccccn1 | 4.47 µM
21 | CCN1CCN(CCCNC(=O)c2ccc3c(c2)NC(=O)/C(=C\c2cccc(C)c2)S3)CC1 | 12.3 µM
22 | COc1ccc(/C(C)=N/Nc2nc(C)cc(-c3ccccc3)n2)cc1 | 9.59 µM
23 | COc1cccc(Cn2c(NCc3ccco3)nc3c2c(=O)n(C)c(=O)n3C)c1 | 6.42 µM
24 | O=C(O)c1ccc(S(=O)(=O)/N=C2\C=C(Nc3ccccc3F)C(=O)c3ccccc32)cc1 | 7.91 µM
25 | C=CCn1c(=NC(=O)c2cc(-c3cccs3)nc3ccccc23)sc2cc(S(N)(=O)=O)ccc21 | 17.9 µM
26 | CCC1CCCCN1S(=O)(=O)c1ccc(NC(=O)c2nc(S(C)(=O)=O)ncc2Cl)cc1 (configuration not stated) | 8.01 µM

Row | Structure (SMILES) | AC50
27 | Cc1ccc(C)c(S(=O)(=O)N2CCN(c3ncnc4sccc34)CC2)c1 | 4.53 µM
28 | Cc1ccc(C)c(-c2csc(NC(=O)C3=COCCO3)n2)c1 | 7.67 µM
29 | c1ccc(CNc2c(-c3cccc(SC4CCCCC4)c3)nc3ccccn23)cc1 | 2.98 µM
30 | COc1cc(-c2nc3ccc(C)cn3c2NCc2ccccc2)ccc1SC1CCCCC1 | 5.49 µM
31 | O=C(OCCOc1cccc(Cl)c1)c1cc(S(=O)(=O)N2CCCCC2)ccc1N1CCOCC1 | 7.78 µM
32 | CCOc1ccc(C(Nc2cccnc2)c2cc(Cl)c3cccnc3c2O)cc1 (configuration not stated) | 7.33 µM
33 | CC(C)c1cccc(C(C)C)c1OC(=O)[C@H]1OC(C(C)(C)C)=C[C@@H]1c1ccccc1 | 7.8 µM
34 | COc1cnc(-c2ccccn2)nc1Sc1ccccc1Cl | 23.1 µM
35 | COc1ccc2cc3[n+](cc2c1OC)CCc1cc2c(cc1-3)OCO2 | 5.44 µM
36 | Cc1ccc(-n2c(-c3ccccc3)c[n+]3c2CCc2ccccc2-3)c(C)c1 | 1.91 µM
37 | CCN(CC)S(=O)(=O)c1cccc(NC(=O)Nc2cccc(C(F)(F)F)c2)c1 | 7.13 µM
38 | O=[N+]([O-])/C=C/c1ccc2c(ccn2Cc2ccccc2)c1 | 7.72 µM
39 | Cc1ccc2nc(C)c(CN3CCN(c4ccc([N+](=O)[O-])cc4Cl)CC3)n2c1 | 2.92 µM
40 | Cc1ncc(CO)c(/C=N/Nc2ccc(C(F)(F)F)cn2)c1O | 5.17 µM
41 | CC1=CC(=O)C(C(C)C)=C/C1=N/OS(=O)(=O)c1ccccc1 | 1.42 µM
42 | Cc1ccc(S(=O)(=O)CC2CSc3nc4ccccc4n32)cc1 (configuration not stated) | 6.51 µM
43 | C#CCOCCOCCOCCNc1nc(N2CCN(C(=O)CCCCCCCCCCNC(=O)[C@H]([C@@H](C)CC)n3cc(CCCCCN)nn3)CC2)nc(N2CCN(C(=O)CCCCCCCCCCNC(=O)[C@H]([C@@H](C)CC)n3cc(CCCCN=C(N)N)nn3)CC2)n1 | 6.72 µM
44 | CC(C)c1ccccc1-n1c(SCC(=O)N2CCc3ccccc3C2)nc2ccccc2c1=O | 2.42 µM
45 | O=C(Nc1ccccc1O)C(c1ccccc1)c1ccccc1 | 6.92 µM
46 | CCOc1ccc(S(=O)(=O)N(C(=O)c2ccco2)c2cc3sc(=O)oc3c3ccccc23)cc1 | 12.7 µM
47 | O=[N+]([O-])c1ccc(O)c(/C=N/Nc2nc3ccccc3[nH]2)c1 | 2.01 µM
48 | Cc1ccc(NC(=O)c2nc(S(=O)(=O)Cc3ccccc3)ncc2Cl)cc1 | 15.3 µM
49 | CCCC[C@@H](CN[C@H](C)CNC)NCC1CCC(C(C)(C)C)CC1 (some centres not stated) | 15 µM
50 | COc1cc(-c2nc3ccc(C)cn3c2NCc2ccccc2)ccc1-c1cccc(Cl)c1 | 4.66 µM
51 | COC(=O)C1=C(C)N(Cc2ccccc2)C(=NCc2ccccc2)N[C@H]1c1cccc(C(F)(F)F)c1 | 14.1 µM
52 | CCCCCCCCCCOC(=O)Cn1c(COc2ccccc2C)[n+](C)c2ccccc21 | 3.22 µM
